Assay results as given in ChEMBL document CHEMBL3739307, “Synthesis and multiparametric evaluation of thiadiazoles and oxadiazoles as diacylglycerol acyltransferase type 1 inhibitors” (Bioorg Med Chem Lett, 2016).

Experiments:
Liver microsome [1] = experiment: Metabolic stability in human liver microsomes; type: ADME
[2] = Metabolic stability in mouse liver microsomes; type: ADME
Liver microsome [3] = experiment: Metabolic stability in rat liver microsomes; type: ADME
[4] = Permeability across human Caco2 cells; type: ADME, cell-based; conditions: Caco-2, read-out: permeability
[5] = Oral bioavailability in rat; type: ADME, organism-based; conditions: in vivo
[6] = Cmax in rat heart at 10 mg/kg, po administered as single dose; type: ADME, organism-based; design: dose 10 mg/kg, route oral
[7] = Cmax in rat plasma at 10 mg/kg, po administered as single dose; type: ADME, organism-based; design: dose 10 mg/kg, route oral
[8] = Cmax in rat small intestine at 10 mg/kg, po administered as single dose; type: ADME, organism-based; design: dose 10 mg/kg, route oral
[9] = Half life in rat plasma at 10 mg/kg, po administered as single dose; type: ADME, organism-based
[10] = Tmax in rat at 10 mg/kg, po administered as single dose; type: ADME, organism-based; conditions: in vivo
[11] = Cmax in rat liver at 10 mg/kg, po administered as single dose; type: ADME, organism-based; design: dose 10 mg/kg, route oral
[12] = Cmax in rat brain at 10 mg/kg, po administered as single dose; type: ADME, organism-based; design: dose 10 mg/kg, route oral

SMILES | Stability (Liver microsome [1]) | Stability [2] | Stability (Liver microsome [3]) | Papp [4] | bioavailability [5] | Cmax [6] | Cmax [7] | Cmax [8] | half-life [9] | Tmax [10] | Cmax [11] | Cmax [12]
O=C(O)C[C@H]1CC[C@H](c2ccc(C(=O)Nc3nnc(Cc4ccccc4)s3)cc2)CC1 | 0% | 5% | 11% |  |  |  |  |  |  |  |  | 
O=C(Nc1nnc(NC2CCCC2)s1)c1ccc(O[C@H]2CC[C@@H](C(=O)O)CC2)cc1 | 2% | 3% | 4% | 0.6 ×10⁻⁶ cm/s |  |  |  |  |  |  |  | 
O=C(Nc1nc(Cc2ccccc2)no1)c1ccc(O[C@H]2CC[C@@H](C(=O)O)CC2)cc1 | 2% | 100% | 53% | 2.9 ×10⁻⁶ cm/s |  |  |  |  |  |  |  | 
O=C(O)C[C@H]1CC[C@H](c2ccc(C(=O)Nc3nnc(COC4CCCC4)s3)cc2)CC1 | 3% | 0% | 0% | 10.3 ×10⁻⁶ cm/s |  |  |  |  |  |  |  | 
O=C(Nc1nc(Cc2cc(F)cc(F)c2)no1)c1ccc(O[C@H]2CC[C@@H](C(=O)O)CC2)cc1 | 1% | 99% | 61% | 0.9 ×10⁻⁶ cm/s |  |  |  |  |  |  |  | 
O=C(Nc1nnc(Cc2cc(F)cc(F)c2)s1)c1ccc(O[C@H]2CC[C@@H](C(=O)O)CC2)cc1 | 1% | 42% | 9% | 2.9 ×10⁻⁶ cm/s | 4% |  |  |  |  |  |  | 
O=C(Nc1nnc(COC2CCCC2)s1)c1ccc(O[C@H]2CC[C@@H](C(=O)O)CC2)cc1 | 5% | 8% | 1% | 4.1 ×10⁻⁶ cm/s |  |  |  |  |  |  |  | 
O=C(O)C[C@H]1CC[C@H](c2ccc(C(=O)Nc3nnc(CCC4CCCO4)s3)cc2)CC1 (stereo not given in full) | 9% | 8% | 3% | 7.2 ×10⁻⁶ cm/s |  |  |  |  |  |  |  | 
O=C(Nc1nnc(Nc2ccccc2)s1)c1ccc(O[C@H]2CC[C@@H](C(=O)O)CC2)cc1 | 11% | 8% | 4% | 0.6 ×10⁻⁶ cm/s |  |  |  |  |  |  |  | 
O=C(Nc1nnc(Cc2ccccc2)s1)c1ccc(O[C@H]2CC[C@@H](C(=O)O)CC2)cc1 | 3% | 27% | 22% | 1.5 ×10⁻⁶ cm/s |  |  |  |  |  |  |  | 
O=C(Nc1nnc(Cc2ccccc2)s1)c1ccc(O[C@H]2CC[C@@H](C(=O)O)CC2)nc1 | 1% | 23% | 37% | 1.1 ×10⁻⁶ cm/s |  |  |  |  |  |  |  | 
O=C(Nc1nnc(Cc2cc(F)cc(F)c2)s1)c1ccc(O[C@H]2CC[C@H](C(=O)O)CC2)cc1 | 1% | 9% | 8% | 3 ×10⁻⁶ cm/s |  |  |  |  |  |  |  | 
O=C(Nc1nnc(Cc2cccc(Cl)c2)s1)c1ccc(O[C@H]2CC[C@@H](C(=O)O)CC2)nc1 | 2% | 56% | 27% | 1.7 ×10⁻⁶ cm/s |  |  |  |  |  |  |  | 
NCCCC[C@H](N)C(=O)O.O=C(Nc1nnc(Cc2cc(F)cc(F)c2)s1)c1ccc(O[C@H]2CC[C@@H](C(=O)O)CC2)cc1 |  |  |  |  | 40% | 4.2 µM | 13.2 µM | 14.3 µM | 444 min | 4 h | 248 µM | 160 nM
